Experiments:
[1] = biological target: T1, Metabotropic glutamate receptor 1 (Rattus norvegicus, UniProt P23385); assay: Inhibition of rat mGluR1a in CHO cells by CDP-DAG accumulation method; type: functional, cell-based
[2] = biological target: T1, Metabotropic glutamate receptor 1; assay: Inhibition of rat mGluR1a in CHO cells by CDP-DAG accumulation method upto 100 uM; type: functional, cell-based

T1 sequence (P23385 whole entry): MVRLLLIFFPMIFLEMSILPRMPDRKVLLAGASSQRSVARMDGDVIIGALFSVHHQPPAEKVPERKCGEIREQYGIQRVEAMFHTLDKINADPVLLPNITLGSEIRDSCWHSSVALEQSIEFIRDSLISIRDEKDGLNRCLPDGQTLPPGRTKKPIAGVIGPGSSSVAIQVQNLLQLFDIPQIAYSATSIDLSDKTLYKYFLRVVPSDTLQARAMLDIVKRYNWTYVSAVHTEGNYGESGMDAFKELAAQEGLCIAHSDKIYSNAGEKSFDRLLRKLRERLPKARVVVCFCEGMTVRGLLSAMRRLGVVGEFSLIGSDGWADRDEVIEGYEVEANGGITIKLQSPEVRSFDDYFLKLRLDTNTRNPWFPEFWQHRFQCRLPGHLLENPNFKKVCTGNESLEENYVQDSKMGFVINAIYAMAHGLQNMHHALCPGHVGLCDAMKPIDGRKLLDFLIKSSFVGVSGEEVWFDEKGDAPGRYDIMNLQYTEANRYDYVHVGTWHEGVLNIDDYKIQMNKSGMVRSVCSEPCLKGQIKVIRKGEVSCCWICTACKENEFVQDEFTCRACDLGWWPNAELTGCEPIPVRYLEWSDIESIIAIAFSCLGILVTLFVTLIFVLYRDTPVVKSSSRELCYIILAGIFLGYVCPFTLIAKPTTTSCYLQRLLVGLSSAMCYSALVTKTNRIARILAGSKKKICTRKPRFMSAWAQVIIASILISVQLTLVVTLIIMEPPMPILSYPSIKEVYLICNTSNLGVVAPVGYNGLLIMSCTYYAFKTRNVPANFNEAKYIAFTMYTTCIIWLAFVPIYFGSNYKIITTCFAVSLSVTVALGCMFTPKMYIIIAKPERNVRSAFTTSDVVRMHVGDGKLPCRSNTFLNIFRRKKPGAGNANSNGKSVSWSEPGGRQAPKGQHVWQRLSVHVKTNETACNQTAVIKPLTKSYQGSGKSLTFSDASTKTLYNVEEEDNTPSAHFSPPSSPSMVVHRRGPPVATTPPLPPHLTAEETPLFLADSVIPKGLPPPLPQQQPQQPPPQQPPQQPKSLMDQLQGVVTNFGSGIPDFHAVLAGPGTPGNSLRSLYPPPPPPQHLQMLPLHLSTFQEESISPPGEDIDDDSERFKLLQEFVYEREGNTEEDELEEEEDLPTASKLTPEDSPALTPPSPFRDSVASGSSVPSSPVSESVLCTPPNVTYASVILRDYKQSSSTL

SMILES | IC50 [1] | IC50 [2]
Cc1c(C(=O)OC(C)C(C)(C)C)cn2c1C(=O)N(CCNC(=O)OC(C)(C)C)CC2 (stereo unspecified) | 398 nM | 
Cc1c(C(=O)OC(C)C(C)(C)C)cn2c1C(=O)N(CCCN(C)C(=O)c1ccncc1)CC2 (stereo unspecified) | 3160 nM | 
CCNC(=O)NCCCN1CCn2cc(C(=O)OC(C)C(C)(C)C)c(C)c2C1=O (stereo unspecified) | 398 nM | 
COCCN1CCn2cc(C(=O)OC(C)C(C)(C)C)c(C)c2C1=O (stereo unspecified) | 251 nM | 
Cc1c(C(=O)OC(C)C(C)(C)C)cn2c1C(=O)N(Cc1ccccc1)CC2 (stereo unspecified) | 251 nM | 
C=CCN1CCn2cc(C(=O)OC(C)C(C)(C)C)c(C)c2C1=O (stereo unspecified) | 20 nM | 
CC(=O)NCCCN1CCn2cc(C(=O)OC(C)C(C)(C)C)c(C)c2C1=O (stereo unspecified) | 501 nM | 
Cc1c(C(=O)OC(C)C(C)(C)C)cn2c1C(=O)N(N1CCOCC1)CC2 (stereo unspecified) | 3160 nM | 
Cc1c(C(=O)OC(C)C(C)(C)C)cn2c1C(=O)N(CCF)CC2 (stereo unspecified) | 20 nM | 
Cc1c(C(=O)OC(C)C(C)(C)C)cn2c1C(=O)N(CCCNC(=O)c1ccncc1)CC2 (stereo unspecified) | 398 nM | 
Cc1c(C(=O)OC(C)C(C)(C)C)cn2c1C(=O)N(CC(F)F)CC2 (stereo unspecified) | 25.1 nM | 
Cc1c(C(=O)OC(C)C(C)(C)C)cn2c1C(=O)N(CCCN1C(=O)c3ccccc3C1=O)CC2 (stereo unspecified) | 15.8 nM | 
Cc1c(C(=O)OC(C)C(C)(C)C)cn2c1C(=O)N(CCCN)CC2 (stereo unspecified) |  | Not Active
CCCN1CCn2cc(C(=O)OC(C)C(C)(C)C)c(C)c2C1=O (stereo unspecified) | 39.8 nM | 
Cc1c(C(=O)OC(C)C(C)(C)C)cn2c1C(=O)NCC2 (stereo unspecified) |  | Not Active
Cc1c(C(=O)OC(C)C(C)(C)C)cn2c1C(=O)N(CC1CC1)CC2 (stereo unspecified) | 20 nM | 
